Assays:
cornea = conditions: background, cited from earlier work; for hardness / stiffness of cross-linked cornea: Rose Bengal/Green Light (532 nm) or riboflavin/UV-A
[1] = tested on: human corneal epithelial cells (HCECs) and limbal mesenchymal stem cells (LMSCs); assay: Cell viability / cytotoxicity, HCECs and LMSCs taken together; assay type: cell-based; conditions: Ruthenium or/and SPS
Source text: Furthermore, the cytotoxic effects of Ruthenium and SPS compound on human corneal epithelial cells (HCECs) and limbal mesenchymal stem cells (LMSCs) were investigated to determine the ruthenium concentration and time needed for the cross-linking process. The relative viabilities of cells were detected by CellTiter-Glo® Luminescent Cell Viability Assay (Promega, Mannheim, Germany) detected the relative viabilities of cells, which is a method used to detect the number of viable cells depending on the amount of ATP in alive cells. […] (FIGS. 3A-3B)

LMSCs and HCECs = assay: Annexin V-FITC/PI flow cytometry; assay type: cell-based, human; conditions: 1 hour treatment; compared with ruthenium-SPS treated cells
Experimental: The effects of [Ru(bpy)3]^2+ and SPS solutions on cell viability and apoptosis were examined by Annexin-V/propidium iodide (PI) staining in flow cytometry. LMSCs and HCECs (10^5 cells/well) were plated in 6-well culture dishes. [Ru(bpy)3]^2+ and SPS in various concentrations (1 mM and 10 mM) were added to the cell culture medium. The cells were incubated for 1 hour at 37 °C. After the treatment with the solutions, the cells were collected and washed with PBS at 4 °C. The cells were resuspended in 1× binding buffer at a 1×10^5 cells/ml density. 100 μl of the cell suspension were labeled with 2.5 μl of fluorochrome-conjugated Annexin V and 5 μl of PI according to the manufacturer's protocol (BioLegend, San Diego, CA, USA) and analyzed by using a flow cytometer (Attune N. T Flow Cytometer, Thermo Fisher Scientific, Waltham, MA, USA).
Annexin V-FITC and propidium iodide staining provide sensitive outcomes for detecting cellular apoptosis. While annexin V-FITC binds on the surface of cells that undergo programmed cell death, PI detects necrotic or late apoptotic cells characterized by loss of plasma and nuclear membrane integrity. Cells treated with [Ru(bpy)3]^2+ and/or SPS for 1 hour were harvested after treatment and stained with Annexin V-FITC and PI.

bovine corneas [2] = assay: Rheological measurements of crosslinked corneas (time sweep); conditions: 2 mM riboflavin, UV-A 365 nm, after 30 min
Experimental: (§1) For biomechanical experiments, bovine corneas were used. First the corneal epithelia were removed with a scalpel blade and 8 mm central corneal buttons were isolated from bovine eyes with a trephine blade (Katena, Parsippany, NJ, USA). After that, corneal buttons separated into three different experimental groups: • Ruthenium (Ru)-Sodium persulfate (SPS)/visible light, • Riboflavin/UV-A light, and • Control groups.
[Ru(bpy)3]^2+ and SPS solution was prepared in PBS via dissolving Tris(2,2′-bipyridyl)dichlororuthenium(II) hexahydrate (544981, Sigma-Aldrich, MO, USA) and sodium persulfate (216232, Sigma-Aldrich, MO, USA). Ru-SPS solution was prepared in two different concentrations: 0.001 M (1 mM) and 0.0001 M (0.1 mM) was dropped on corneal buttons and the samples were incubated for 5 min for the samples in the Ru-SPS experimental group. Then all solutions were removed, and 430 nm visible light (3 mW/cm^2) was applied to the samples for 40 min. […]
Rheological measurements were carried out in time sweep mode with 1 Hz frequency, 1% strain using TA Instruments AR/DHR series rheometer (New Castle, DE) equipped with two different light sources: visible light ([…]) and UV-A light (λ=365 nm). […] Storage and loss moduli profiles were recorded as a function of time continuously for 40 min at ambient conditions. […]

bovine corneas [3] = assay: Uniaxial stress-strain test of corneal strips
Experimental: as §1
(§2) [Ru(bpy)3]^2+ and SPS solution was prepared in PBS via dissolving Tris(2,2′-bipyridyl)dichlororuthenium(II) hexahydrate (544981, Sigma-Aldrich, MO, USA) and sodium persulfate (216232, Sigma-Aldrich, MO, USA). Ru-SPS solution was prepared in two different concentrations: 0.001 M (1 mM) and 0.0001 M (0.1 mM) was dropped on corneal buttons and the samples were incubated for 5 min for the samples in the Ru-SPS experimental group. Then all solutions were removed, and 430 nm visible light (3 mW/cm^2) was applied to the samples for 40 min. To mimic the standard CXL corneal collagen crosslinking procedure for the riboflavin experimental group, 0.002 M (2 mM) riboflavin 5′-monophosphate solution (18167, Cayman Chemical, MI, USA) was dropped on corneal buttons and the samples were incubated for 5 min. Then riboflavin solution was removed, and 365 nm visible light (3 mW/cm^2) applied to the cornea samples for 40 min. No solution or light was applied to the corneas in the control group.
The stress-strain test was performed on a full-thickness minus the epithelium corneal strips dissected from the bovine corneas. The mechanical properties of all the samples were determined using force and displacement measurements. The initial cross-sectional area and the corresponding force measurements of each test sample were used to calculate the engineering stress. The maximum displacement at the breakage point of each sample was used to estimate the change in the length of each sample. This change in the length was related nominally to the initial length of the corresponding test sample to calculate the engineering strain. The modulus of elasticity and the ultimate tensile strength of each sample was then estimated by the engineering stress-strain curves. The ultimate tensile strength was defined as the peak value of stress on the stress-strain curve before the breakage point of the sample when being stretched. The linear regression analysis between the zero point and the point that equals 70% of the maximum stress for each sample was used to compute the modulus of elasticity. The modulus of elasticity is a material-dependent property such that it depends upon the internal structure and the bond strength between the atoms of each sample. Therefore, the modulus of elasticity remained similar for one sample type; however, it differed for other sample types. […]

bovine corneas [4] = assay: Osmotic stress (swelling) test; conditions: 15% dextran-500 PBS overnight, then three hours in distilled water
Experimental: as §1
as §2, with “control group. […]” for “control group.”

bovine corneas [5] = assay: Corneal optical transparency and Lambert-Beer penetration distance
Experimental: The standard protocol for corneal crosslinking can only be applied in cases with a corneal thickness above 400 μm. When applied to thinner corneas, UV-A beam reaches the corneal endothelial cells resulting in endothelial toxicity and corneal edema. For this purpose, the Lambert-Beer formula was applied for optical transmittance results of both photoinitiator solutions (FIG. 6C). Corneal light transmittance was then calculated with the Lambert-Beer formula: […]
In this formula, A represents the optical absorbance of the sample, ε represents the molar attenuation coefficient of the photoinitiator, c is the concentration of the photoinitiator, and l is the total optical path length of the light. For these calculations, molar attenuation coefficients for each photoinitiators (10066 M^−1 cm^−1 for riboflavin and 14,600 M^−1 cm^−1 for tris(2,2′-bipyridyl)ruthenium(II)) obtained from previous literature.[15, 16] […]
Corneal optical transparencies were measured in corresponding light wavelengths for each experimental group. For the 2 mM riboflavin-based crosslinked corneas, average optical transparency in 365 nm was measured as 0.713±0.222. In the same conditions, the average optical transparency for 1 mM ruthenium-based crosslinked corneas was measured as 0.724±0.050 in 430 nm light wavelength, which is correlated with the riboflavin-based CXL procedure. […]

bovine corneas [6] = assay: Enzymatic digestion (collagenase) test of corneas; conditions: 24 hours of digestion by collagenases
Experimental: as §1
as §2, with “control group. […]” for “control group.”

bovine corneas [7] = assay: UV & visible spectrophotometry of corneas; conditions: PBS, UV (300-400) and visible (400-800); different crosslinking procedures
Experimental: Optical transmission and absorption tests were performed on de-epithelized bovine corneas for the UV and visible light spectrum. Control and crosslinked corneas were submerged in PBS, and their optical transmission was assessed using a UV-Vis. Spectrometer (Edinburgh Instruments Spectrofluorometer FS5). Transmittance spectra (% T) were collected from 300 to 800 nm at 1 nm increments. […] The results are illustrated in FIGS. 7A-7B.

[8] = obtained from previous literature [15, 16]; cited from earlier work

Row | resistance to enzymatic digestion (bovine corneas [6]) | SMILES | hardness / stiffness of cross-linked cornea (cornea) | depth of cross-linking effect (cornea; Rose Bengal/Green Light (532 nm)) | cytotoxicity influence on viability of cells [1] | cell death (Annexin V-FITC/PI) (LMSCs and HCECs) | average storage modulus (bovine corneas [2]) [kPa] | stiffness compared to control (bovine corneas [3]; from modulus of elasticity) | increase of modulus of elasticity vs control (bovine corneas [3]; riboflavin-treated) | increase of ultimate tensile strength vs control (bovine corneas [3]; riboflavin-treated) | strain compared to control (bovine corneas [3]; stress-strain test) | swelling vs normal corneas (bovine corneas [4]) | average optical transparency (bovine corneas [5]; 2 mM riboflavin-based crosslinked corneas, 365 nm) | mean distance traveled in the bovine cornea (bovine corneas [5]; Lambert-Beer formula applied to optical transmittance results) [μm] | optical absorbance of corneas, change after crosslinking (bovine corneas [7]) | optical transmission of corneas, change after crosslinking (bovine corneas [7]) | molar attenuation coefficient [8] [M⁻¹ cm⁻¹] | healing time of corneal haze, in some eyes (cornea; riboflavin/UV-A)
1 | – | O=C1OC2(c3cc(I)c(O)c(I)c3Oc3c2cc(I)c(O)c3I)c2c(Cl)c(Cl)c(Cl)c(Cl)c21 [Rose Bengal] | increased hardness | more superficial effect | – | – | – | – | – | – | – | – | – | – | – | – | – | –
2 | – | O=S(=O)([O-])OOS(=O)(=O)[O-].[Na+].[Na+] [SPS, sodium persulfate] | – | – | dose-dependent cytotoxicity | higher degree of cell death than ruthenium-SPS treated cells | – | – | – | – | – | – | – | – | – | – | – | –
3 | digested entirely after 24 hours | Cc1cc2nc3c(=O)[nH]c(=O)nc-3n(C[C@H](O)[C@H](O)[C@H](O)COP(=O)(O)O)c2cc1C [riboflavin, riboflavin 5′-monophosphate] | increased corneal stiffness | – | – | – | 92.88 | overall increasing stiffness | approximately 16% | approximately 16% | decreasing strain trend | less swelling | 0.713±0.222 | 719 | did not change significantly | did not change significantly | 10066 | 6-12 months

Reference: patent publication US20260325643A1, “METHOD AND PHARMACEUTICAL COMPOSITION FOR VISIBLE LIGHT-INDUCED CORNEAL CROSSLINKING WITH RUTHENIUM COMPOUNDS FOR THE TREATMENT OF EYE DISORDERS” (KOC UNIVERSITESI, priority 2022, published 2026)
